Here are results for ten compounds from PubChem BioAssay (NCI).

“And” between values parts separate entries of the source, which are not always exact repeats. Equal values may be shown once.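 Compound exposure: 48 hours, 5 concentrations, 96-well plates. The concentration for 50% growth inhibition is given as GI50. TGI marks complete inhibition of growth.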 Some results are limits rather than exact numbers.

Usually GI50 stands for the concentration that inhibits growth by half. The TGI is the concentration giving total growth inhibition. A higher TGI goes with lower sensitivity of the cells.

Test systems include CAKI-1 renal; DLD-1 colon; EKVX NSCLC; HL-60(TB) leukemia; KM12 colon; M14 melanoma; RPMI-8226 leukemia; SK-MEL-2 melanoma; SNB-75 CNS; LXFL 529 NSCLC.
Holding throughout (experiment): DTP human tumour cell line panel, 48 h

`O=C1C(=O)c2ccccc2C(O)=C1CC=C(Cl)Cl`: the GI50 in the assay on CAKI-1 renal is 7.47 µM and 7.14 µM; in the assay on DLD-1 colon it was 7.21 µM; in the assay with EKVX NSCLC, 13.4 µM; in the assay on HL-60(TB) leukemia, 3.24 µM and 13.3 µM; in the assay with KM12 colon it was 11.7 µM and 5.17 µM; in the assay on M14 melanoma, 29.4 µM and 9.94 µM. Moreover, the GI50 was 6.53 µM in the assay with RPMI-8226 leukemia; 22.1 µM in the assay on SK-MEL-2 melanoma; 21.3 µM and 6.06 µM in the assay on SNB-75 CNS. Moreover, the TGI is 65.6 µM and 136 µM and > 100 µM in the assay on CAKI-1 renal; 178 µM with DLD-1 colon; 57.1 µM and 206 µM with EKVX NSCLC; 37.8 µM and > 76.6 µM and 56.6 µM in the assay with HL-60(TB) leukemia; > 82.8 µM and 161 µM and > 100 µM in the assay on KM12 colon; > 90.7 µM and 108 µM and > 100 µM in the assay with M14 melanoma. For the same compound, the TGI in the assay with RPMI-8226 leukemia was 37.4 µM and 65.2 µM and 45.9 µM; in the assay on SK-MEL-2 melanoma, 44.3 µM and 47.1 µM and 63.9 µM; in the assay on SNB-75 CNS, 65 µM and 169 µM and > 100 µM.
`Cn1c2ccccc2c(=O)c2c([N+](=O)[O-])ccc(NCCN)c21`: the TGI in the assay on CAKI-1 renal was found to be 25.9 µM; in the assay on EKVX NSCLC it was 31 µM; in the assay on HL-60(TB) leukemia, 22.9 µM; in the assay on KM12 colon it was 19.7 µM; in the assay on LXFL 529 NSCLC it was 21.1 µM; in the assay with M14 melanoma, 27.4 µM. Moreover, the figures for the TGI with SK-MEL-2 melanoma and with SNB-75 CNS were 36 µM and 26.8 µM, respectively.
For the compound `BrC1=CC=C2NCCCCCCN=C3C=CC(Br)=CC=C3NCCCCCCN=C2C=C1`, the TGI in the assay with CAKI-1 renal, in the assay on DLD-1 colon, in the assay on EKVX NSCLC, in the assay with HL-60(TB) leukemia, in the assay on KM12 colon and with M14 melanoma was above 25.5 µM in each case. Further, the TGI with RPMI-8226 leukemia, in the assay with SK-MEL-2 melanoma and in the assay with SNB-75 CNS was above 25.5 µM each time.
Consider `CCCCN(CCCC)C(=O)C(=O)C(C)C(=O)CC` (configuration not stated), for which the concentration for total growth inhibition (TGI) in the assay with CAKI-1 renal, with DLD-1 colon, with HL-60(TB) leukemia, in the assay on KM12 colon, in the assay with LXFL 529 NSCLC and in the assay with M14 melanoma was above 100 µM throughout. The TGI with RPMI-8226 leukemia, with SK-MEL-2 melanoma and in the assay with SNB-75 CNS was above 100 µM throughout.
Regarding `c1cc(-c2cn[nH]c2)cc(-c2cn[nH]c2)c1`, the TGI in the assay on CAKI-1 renal is 83.9 µM; in the assay with DLD-1 colon, above 100 µM; with EKVX NSCLC, 58.6 µM; in the assay with HL-60(TB) leukemia it was 66.6 µM; in the assay on KM12 colon, above 100 µM; in the assay on M14 melanoma, above 100 µM. In addition, the concentration for total growth inhibition (TGI) in the assay on RPMI-8226 leukemia was above 100 µM; in the assay with SK-MEL-2 melanoma, above 100 µM; in the assay on SNB-75 CNS, 42.7 µM.
Turning to `COc1ccc(C(=O)C(C(=O)C(=O)Nc2nccs2)c2ccc(OC)cc2)cc1` (configuration not stated), the concentration for total growth inhibition (TGI) with CAKI-1 renal, in the assay with DLD-1 colon, in the assay with KM12 colon, in the assay with LXFL 529 NSCLC, in the assay with M14 melanoma and with RPMI-8226 leukemia was above 100 µM in each case. The concentration for total growth inhibition (TGI) with SK-MEL-2 melanoma and in the assay with SNB-75 CNS was above 100 µM in each case.
Turning to `O=C(O)/C(=C\c1ccccc1Cl)S(=O)(=O)c1ccccc1`, the TGI in the assay on CAKI-1 renal, with DLD-1 colon, in the assay with HL-60(TB) leukemia, in the assay with KM12 colon, in the assay on LXFL 529 NSCLC and with M14 melanoma was above 100 µM each time. In addition, the TGI in the assay with RPMI-8226 leukemia, in the assay with SK-MEL-2 melanoma and in the assay on SNB-75 CNS was above 100 µM in each case.
As to `N[C@@H]1CCCC[C@@H]1N.O=C([O-])CN(CP(=O)([O-])[O-])CP(=O)([O-])[O-].[Pt+2]`, the GI50 with CAKI-1 renal, with DLD-1 colon, in the assay on HL-60(TB) leukemia, with KM12 colon, with LXFL 529 NSCLC and in the assay with M14 melanoma was above 100 µM each time. The GI50 in the assay on RPMI-8226 leukemia, in the assay with SK-MEL-2 melanoma and in the assay on SNB-75 CNS was above 100 µM each time. In addition, the concentration for total growth inhibition (TGI) with CAKI-1 renal, in the assay on DLD-1 colon, with HL-60(TB) leukemia, with KM12 colon, with LXFL 529 NSCLC and in the assay on M14 melanoma was above 100 µM each time. The concentration for total growth inhibition (TGI) in the assay on RPMI-8226 leukemia, in the assay on SK-MEL-2 melanoma and with SNB-75 CNS was above 100 µM throughout.
As to `COc1ccc(/C=C(/C)[N+](=O)[O-])cc1`, the TGI in the assay on CAKI-1 renal was 6.07 µM; with EKVX NSCLC it was 4.91 µM; in the assay on HL-60(TB) leukemia, above 21.8 µM; in the assay with KM12 colon, 3.32 µM; with M14 melanoma, 7.92 µM; in the assay with RPMI-8226 leukemia it was 3.75 µM. Further, the total growth inhibition concentration (TGI) in the assay on SK-MEL-2 melanoma was found to be 10.8 µM; with SNB-75 CNS, 3.4 µM.
For the compound `O=C(Nc1cccc(O)c1)c1cccc(NC2=C(Cl)C(=O)N(Cc3ccccc3)C2=O)c1`, the GI50 was 0.318 µM with CAKI-1 renal; 17.3 µM with EKVX NSCLC; 4.88 µM in the assay on HL-60(TB) leukemia; 11.4 µM in the assay with KM12 colon; 20.5 µM in the assay with M14 melanoma; 1.49 µM in the assay on RPMI-8226 leukemia. For the same compound, the GI50 in the assay with SK-MEL-2 melanoma is 4.63 µM; with SNB-75 CNS, 18.4 µM. The concentration for total growth inhibition (TGI) in the assay with CAKI-1 renal is 0.806 µM; with EKVX NSCLC it was 32.1 µM; in the assay on HL-60(TB) leukemia, 27.9 µM; in the assay with KM12 colon, 25 µM; in the assay with M14 melanoma it was 40 µM; in the assay on RPMI-8226 leukemia, 27 µM. In addition, the concentration for total growth inhibition (TGI) came out at 19.3 µM in the assay with SK-MEL-2 melanoma and 36.3 µM in the assay on SNB-75 CNS.
